Here are results for one molecule from ChEMBL document CHEMBL1149735, “Stereoselective synthesis and antimalarial activity of alpha-artelinic acid from artemisinin” (J Nat Prod, 1992).

The structures appear in SMILES notation. Activity calls are given as the source filed them. No cut-off for these calls is given here.

The test system of data set [1] is Plasmodium knowlesi. Kind of data set: Antimalarial activity as cures at day 50 in Plasmodium knowlesi infected Rhesus monkey assessed at 15 mg/kg intravenous dose for 3 days. Format: functional, organism-based. On the set-up: dose 15 mg/kg.
Data set [2] in a line: Toxicity in Swiss mouse. Type of data set: organism-based. The conditions noted are these: in vivo.
Data set [3] concerns Plasmodium knowlesi. Kind of data set: Antimalarial activity as parasite elimination up to day 50 against Plasmodium knowlesi infected Rhesus monkey at 30 mg/kg intravenous dose over 3 days. On the set-up: dose 30 mg/kg. Type of data set: functional, organism-based.
In data set [4] the test system is Plasmodium knowlesi. In words: Antimalarial activity as parasite elimination after 24 hrs against Plasmodium knowlesi infected Rhesus monkey at 30 mg/kg intravenous dose. Type of data set: functional, organism-based. Further details: dose 30 mg/kg.

For `C[C@@H]1[C@H](OCc2ccc(C(=O)O)cc2)O[C@@H]2O[C@@]3(C)CC[C@@H]4[C@@H](C)CC[C@@H]1[C@]24OO3` [ARTELINIC ACID], the result in the data set on Plasmodium knowlesi [1] was inactive. This molecule had a median lethal dose (LD50) in data set [2] of 1000 mg/kg. Moreover, the result in the data set on Plasmodium knowlesi [3] and with Plasmodium knowlesi [4] was Active.
